From patent EP0275207A2, “Pharmaceutical and veterinary compositions” (priority 1987, dated 1988) come the findings set out here.

For one series, the system named is Trichophyton rubrum. Description: 7 day growth test in phosphate buffered saline solution (ED 50 and ED 90). Type of series: cell-based. Conditions: for EDso and ED90 results against T. Rubrum: compared to those obtained using bis THP phosphite and THP sulphate; for Mg. growth (% of control) / Mg. growth dry weight / ED50 / ED90: 7 day test; for ED50 / ED90: ppm (Active Compound). The text has this:
The activity of 50% aqueous bis THP phosphite, 50% aqueous mono THP phosphite and 80% aqueous THP sulphate against Trichophyton rubrum were compared in a 7 day test in phosphate buffered saline solution to determine ED 50 and ED 90 values.

Another series concerns bacteria. Description: Time-kill test (surviving organisms by plate count) in phosphate buffered saline, bacterial strains. Type of series: cell-based. Particulars: within 2 to 6 hours of exposure. The protocol:
The following bacterial strains were used in the tests: • Streptococcus pyogenes NCTC 8198 • Streptococcus faecalis ATCC 19433 • Sarcina lutea ATCC 9341 • Proteus mirabilis NCTC 8559 • Proteus vulgaris NCTB 4175 • Klebsiella pneumoniae NCTC 10341 • Salmonella typhimurium NCTB 10258 • Salmonella enteritidis NCTC 6676 • Shigella boydii NCTC 9328 • Bacillus subtilus ATCC 6633 • Bacillus cereus ATCC 11778
Inocula for the bacterial strains were prepared from cultures on Tryptone soy agar (TSA, Oxoid CM 131) incubated at 37° C for 24 hours. […]
(§1) The test solutions as described in (5) above were prepared in 50 ml volumes and the test solutions plus a 100 ml volume of PBS (as control) were inoculated with appropriate volumes (0.5 to 1 ml) of the inocula prepared as described in (2) above, shaken to evenly distribute the inoculum and held at room temperature. Immediatedly after inoculation (time 0) and then at pre-determined times 0.1 ml aliquots were removed from the test and control solutions for counting. […]
(§2) Developing colonies were then counted and by reference to the appropriate dilution ratios the numbers of surviving organisms at each compound concentration/time point were calculated.

Another series deals with fungi. The series is described as follows: Time-kill test (surviving organisms by plate count) in phosphate buffered saline, yeast and fungal strains. The series is classed as cell-based. Particulars: after 24 hours. The protocol: The following yeast and fungal strains were used in the tests: • Candida albicans ATCC 10231 • Candida tropicalis NCPF 3111 • Absidia corymbifera NCPF 2001 • Sporotrichum schenkii NCPF 3182 • Trichophyton rubrum NCPF 197 • Trichophyton mentagrophytes NCPF 351 • Microsporum Canis NCPF 351 • Penicillium funicolosum CMI 114933 • Aureobasidium pullulans CMI 45533
Inocula for the two yeast (Candida) strains wre prepared from cultures on Sabouraud dextrose agar (SDA Oxide CM 141) incubated at 37°C for 48 hours. Surface growth of the organisms was suspended in sterile physiological saline and standardised by plate counts to contain approximatedly 10^6 cfu/ml. […]
as §1, §2

The test system of a further series is protozoal infection. The series is described as follows: Treatment of fish pond with an infected Koi Carp. The series is classed as in vivo. Conditions: 100 ppm dosed to the pond, concentration of 27 ppm in the pond water. The protocol: 100 ppm of 75% aqueous THP sulphate was dosed to the pond via the oxygenating venturi to provide a concentration of 27 ppm in the pond water.

Another series deals with Naegleria. Description: In vitro kill of protozoon. Type of series: cell-based.

A value given as a limit tells only on which side of the number the result lay.

`OC[P+](CO)(CO)CO` [THP bromide]: in the series on Trichophyton rubrum, the “EDso and ED90 results against T. Rubrum” value is “substantially similar”.

For the compound `OC[P+](CO)(CO)CO.[Cl-]` [THP chloride, tetrakis (hydroxymethyl) phosphonium chloride], the “EDso and ED90 results against T. Rubrum” value with Trichophyton rubrum is on record as “substantially similar”.

On to THP acetate, for which the “EDso and ED90 results against T. Rubrum” value in the series with Trichophyton rubrum is “substantially similar”.

On to THP borate, for which, in the series with Trichophyton rubrum, the “EDso and ED90 results against T. Rubrum” value is on record as “substantially similar”.

As for THP citrate, the “EDso and ED90 results against T. Rubrum” value with Trichophyton rubrum is reported as “substantially similar”.

For the compound THP fluoride, in the series with Trichophyton rubrum, the “EDso and ED90 results against T. Rubrum” value is listed as “substantially similar”.

For the compound THP lactate, in the series with Trichophyton rubrum, the “EDso and ED90 results against T. Rubrum” value is on record as “substantially similar”.

For the compound THP tartrate, the “EDso and ED90 results against T. Rubrum” value with Trichophyton rubrum is listed as “substantially similar”.

For bis THP phosphate, the “EDso and ED90 results against T. Rubrum” value in the series with Trichophyton rubrum is recorded as “substantially similar”.

Turning to “bis THP phosphite [50% bis THP phosphite]”, the “Mg. growth (% of control)” value in the series on Trichophyton rubrum (5 ppm (Active Compound)) is listed as “(82) % of control”; in the series with Trichophyton rubrum (15 ppm (Active Compound)) it was “(20) % of control”; in the series on Trichophyton rubrum (50 ppm (Active Compound)) it was “(0) % of control”; in the series with Trichophyton rubrum (150 ppm (Active Compound)), “(0) % of control”; with Trichophyton rubrum (500 ppm (Active Compound)), “(0) % of control”. Also, the “Mg. growth dry weight” value in the series on Trichophyton rubrum (5 ppm (Active Compound)) worked out at 8.7 Mg; in the series with Trichophyton rubrum (15 ppm (Active Compound)), 2.1 Mg; in the series on Trichophyton rubrum (50 ppm (Active Compound)) it was 0 Mg; with Trichophyton rubrum (150 ppm (Active Compound)) it was 0 Mg; in the series on Trichophyton rubrum (500 ppm (Active Compound)), 0 Mg. In the series on Trichophyton rubrum, the ED50 stood at 10 ppm. The ED90 in the series with Trichophyton rubrum was found to be 25 ppm.

Turning to mono THP phosphite [50% THP phosphite], the “Mg. growth (% of control)” value in the series with Trichophyton rubrum (5 ppm (Active Compound)) is given as “(131) % of control”; in the series on Trichophyton rubrum (15 ppm (Active Compound)), “(39) % of control”; in the series with Trichophyton rubrum (50 ppm (Active Compound)) it was “(44) % of control”; in the series with Trichophyton rubrum (150 ppm (Active Compound)), “(32) % of control”; in the series with Trichophyton rubrum (500 ppm (Active Compound)) it was “(23) % of control”. For the same compound, the “Mg. growth dry weight” value in the series with Trichophyton rubrum (5 ppm (Active Compound)) is on record as 9.3 Mg; in the series on Trichophyton rubrum (15 ppm (Active Compound)), 2.8 Mg; with Trichophyton rubrum (50 ppm (Active Compound)) it was 3.1 Mg; with Trichophyton rubrum (150 ppm (Active Compound)), 2.3 Mg; in the series on Trichophyton rubrum (500 ppm (Active Compound)) it was 1.6 Mg. This compound also had an ED50 in the series on Trichophyton rubrum of 11 ppm. In addition, the ED90 in the series with Trichophyton rubrum is above 500 ppm.

As for “tetrakis(hydroxymethyl) phosphonium sulphate”, the “concentration giving a high degree of lethal activity to bacteria” value in the series on bacteria was “at least 20 ppm”. In addition, the “concentration giving a high degree of lethal activity to the fungi” value in the series with fungi is 100-150 ppm. For the same compound, in the series with protozoal infection, the “infection of the other fish” value is reported as “none of the other fish became infected”; the “outcome for the infected fish” value is recorded as “recovered fully”; the “tolerability in fish (feeding, distress)” value is “no signs of distress”.

For “tetrakis(hydroxymethyl) phosphonium sulphate [80% THP Sulphate]”, the “Mg. growth (% of control)” value is “(92) % of control” in the series on Trichophyton rubrum (8 ppm (Active Compound)); “(0) % of control” with Trichophyton rubrum (24 ppm (Active Compound)); “(0) % of control” in the series on Trichophyton rubrum (80 ppm (Active Compound)); “(0) % of control” with Trichophyton rubrum (240 ppm (Active Compound)); “(0) % of control” in the series with Trichophyton rubrum (800 ppm (Active Compound)). The “Mg. growth dry weight” value worked out at 7.3 Mg in the series on Trichophyton rubrum (8 ppm (Active Compound)); 0 Mg with Trichophyton rubrum (24 ppm (Active Compound)); 0 Mg in the series with Trichophyton rubrum (80 ppm (Active Compound)); 0 Mg in the series with Trichophyton rubrum (240 ppm (Active Compound)); 0 Mg in the series with Trichophyton rubrum (800 ppm (Active Compound)). Also, in the series on Trichophyton rubrum, the ED50 was 14 ppm. In the series on Trichophyton rubrum, this compound showed an ED90 of 20 ppm.

Regarding “tetrakis(hydroxymethyl) phosphonium sulphate [THPS]”, the “concentration giving a complete in vitro kill of Naegleria” value in the series with Naegleria was determined as 15 ppm.
